Data taken from patent US20250228958A1, “TSP1 INHIBITOR” (Daiichi Sankyo Company, Limited, priority 2022, published 2025).
Entries after “also recorded” stand apart in the source; their conditions may differ. Starred links: 1 amine or outer side, 2 acyl side, 3 side chain; linkers in the order of their positions; H or OH if unused. Positions of bridges follow the written chain, without caps; N, C: chain ends. Non-standard residues stand in square brackets, D forms with d. Residues, ends and D or L forms follow the SMILES beside them. *: point of attachment. X1 = COCCOCCOCCOCCOCCOCCOCCOCCOCCOCCOCC(=O)N[C@@H](CCCCN*)C(=O)NCCOCCOCCOCCOCCOCCOCCOCCOCCOCCOCCOCCOCCC(=O)NCCOCCOCCOCCOCCOCCOCCOCCOCCOCCOCCOCCOCCC(=O)N[C@@H](CCCCNC(=O)CCN1C(=O)CC(C)C1=O)C(N)=O; 2Nal = N[C@@H](Cc1ccc2ccccc2c1)C(=O)O; Gly(cPent) = N[C@H](C(=O)O)C1CCCC1; Agb = N=C(N)NCC[C@H](N)C(=O)O; hCys = N[C@@H](CCS)C(=O)O; CH2 = C([*:1])[*:2]

How the values were obtained:
[1] = system: C57BL/6 mice, ischemic limb blood flow; test: Blood flow improvement measurement tests (femoral artery/vein ligation and excision, laser Doppler); format: in vivo, mouse; conditions: for blood flow AUC, % of vehicle group mean: blood flow AUC from beginning to end of measurement, ratio to vehicle-treated group mean; for %, ischemia/nonischemia (blood flow on the last day of measurement): mean ± standard error, ratio of ischemic limb flow to non-ischemic limb flow
Description: Six to seven-week-old C57BL/6 mice were purchased from Charles River Laboratories Japan Inc., and acclimated over six days by feeding with a FR-2 solid diet (produced by Funabashi Farm Co., Ltd.). The rearing facility switched between light and dark modes in a 12-hour cycle with light turning on at 7 a.m. and turning off at 7 p.m. Under isoflurane inhalation anaesthesia, the left thighs of the mice were dissected, and the superficial femoral arteries and veins (from just below the deep femoral arteries to the popliteal artery and vein) were ligated and excised. […] Five mice were used for each treatment group.
Blood flows were measured in ischemic (left) and non-ischemic (right) limbs using a laser Doppler perfusion imager (PeriScan PIM III, Moor LD12-HR). The improvement of blood flow was evaluated by the ratio of ischemic limb flow to non-ischemic limb flow. […] In addition, blood flow AUC was calculated to determine the ratio (%) of the mean value of the test substance-treated group to the mean value of the vehicle-treated group.

[2] = Serum stability test, monkey serum; format: in vitro ADME, cynomolgus monkey; conditions: male, residual ratio: IS ratio at 4 hours relative to 0 hours, 37° C.
Description: (§1) • Mouse serum (BALB/c CrSlc, male, Japan SLC, Inc.) • Monkey serum (cynomolgus monkey, male, Japan SLC, Inc.) • Human serum (Caucasian, pool of 5 males and 5 females, KAC Co., Ltd.) • Phenacetin (Nacalai Tesque, Inc.) • Niflumic acid (Nacalai Tesque, Inc.) • Furosemide (Nacalai Tesque, Inc.) • Acetonitrile (FUJIFILM Wako Pure Chemical Corporation) • Methanol (FUJIFILM Wako Pure Chemical Corporation) • Formic acid (FUJIFILM Wako Pure Chemical Corporation) • Dimethyl sulfoxide (DMSO) (FUJIFILM Wako Pure Chemical Corporation)
(§2) Solutions of Phenacetin, niflumic acid, and furosemide were prepared in DMSO at 10 μg/ml, 150 μg/ml, and 200 μg/ml, respectively. 10 μg/ml of phenacetin in DMSO, 150 μg/ml of niflumic acid in DMSO, and 200 μg/ml of furosemide in DMSO were dissolved in a mixture of […]/methanol (75/25, v/v) (final concentrations: phenacetin; 1 ng/mL, niflumic acid: 15 ng/mL, and furosemide 20 ng/mL), and formic acid was added to the prepared test solution (final concentration: 1% (v/v)) to prepare a formic acid-containing IS solution.
(§3) The test substances were prepared in DMSO to a concentration of 10 mM each. Further, the solution was diluted with DMSO to a concentration of 2 mM to make a test substance solution.
(§4) Each serum was preincubated at 37° C. for 5 minutes, and then the test substance solution was added to a final concentration of 20 μM to initiate the reaction. The test substance-added serum was incubated at 37° C. At 0 and 4 hours after the start of the reaction, a portion of the serum was taken out and added to the formic acid-containing IS solution to stop the reaction, which was used as a measurement sample.
(§5) The test substance and IS (phenacetin, niflumic acid, and furosemide) in the measurement sample were measured by LC-MS/MS, and the peak area ratio (IS ratio) of the test substance to IS (any of phenacetin, niflumic acid, and furosemide) was calculated.
(§6) The percentage of the IS ratio at 4 hours after the start of the reaction relative to that at 0 hours after the start of the reaction was used as a residual ratio to evaluate serum stability.

[3] = Serum stability test, human serum; format: in vitro ADME; conditions: both sexes, residual ratio: IS ratio at 4 hours relative to 0 hours, 37° C.
Description: as §1, §2, §3, §4, §5, §6

[4] = Serum stability test, mouse serum; format: in vitro ADME; conditions: for remaining at 4 h, 20 μM: male, BALB/c CrSlc, mouse, mouse serum, residual ratio: IS ratio at 4 hours relative to 0 hours, 37° C.; for serum stability (in words): statement covers mouse, monkey and human serum, 4 hours
Description: as §1, §2, §3, §4, §5, §6

| Structure (SMILES) | remaining at 4 h, 20 μM [2] | remaining at 4 h, 20 μM [3] | remaining at 4 h, 20 μM [4] | serum stability (in words) [4] | blood flow AUC, % of vehicle group mean ([1]; 0.3 mg/kg) | %, ischemia/nonischemia (blood flow on the last day of measurement) ([1]; 0.3 mg/kg) | blood flow AUC, % of vehicle group mean ([1]; 1 mg/kg) | %, ischemia/nonischemia (blood flow on the last day of measurement) ([1]; 1 mg/kg) |
| --- | --- | --- | --- | --- | --- | --- | --- | --- |
| COCCOCCOCCOCCOCCOCCOCCOCCOCCOCCOCC(=O)N[C@@H](CCCCNC(=O)[C@H](CC(=O)O)NC(=O)[C@H](CC(=O)O)NC(=O)CNC(=O)CNC(=O)CNC(=O)CNC(=O)[C@@H]1CSCC(=O)N[C@@H](Cc2ccc3ccccc3c2)C(=O)N[C@H](CCCNC(=N)N)C(=O)N[C@H]2CCSSCC[C@H](NC(=O)[C@H](Cc3c[nH]c4ccccc34)NC(=O)[C@@H](CC(=O)O)NC(=O)[C@H](CCCNC(=N)N)NC(=O)CNC2=O)C(=O)N[C@H](CCCNC(=N)N)C(=O)N[C@@H](Cc2c[nH]c3ccccc23)C(=O)N[C@@H](C2CCCC2)C(=O)N1)C(=O)NCCOCCOCCOCCOCCOCCOCCOCCOCCOCCOCCOCCOCCC(=O)NCCOCCOCCOCCOCCOCCOCCOCCOCCOCCOCCOCCOCCC(=O)N[C@@H](CCCCNC(=O)CCN1C(=O)CC(C)C1=O)C(N)=O (some centres unmarked) [Conjugate-4] ({CH2CO}-[2Nal][dR][hCys]GR[dD]W[hCys][dR]W[Gly(cPent)]CGGGGDD-X1; disulfide 3-8; thioether N-12) |  |  |  |  | 263.9% | 54.5 ± 10.2% | 346.8% | 76.1 ± 11.2% |
| CC(C)[C@@H]1NC(=O)[C@H](Cc2c[nH]c3ccccc23)NC(=O)[C@H](CC(N)=O)NC(=O)[C@H](CCNC(=N)N)NC(=O)CNC(=O)[C@H](CO)NC(=O)[C@H](CCCNC(=N)N)NC(=O)[C@H](Cc2ccc3ccccc3c2)NC(=O)CSC[C@@H](C(N)=O)NC(=O)[C@H](C2CCCC2)NC(=O)[C@H](Cc2c[nH]c3ccccc23)NC(=O)[C@H](CCCNC(=N)N)NC1=O [Peptide-115] ({CH2CO}-[2Nal]RSG[Agb]NWVRW[Gly(cPent)]C-NH2; thioether N-12) | 14.9% | 78.2% | 64.5% |  |  |  |  |  |
| N=C(N)NCCC[C@@H]1NC(=O)CNC(=O)[C@@H]2CSSCC[C@H](NC(=O)[C@H](Cc3c[nH]c4ccccc34)NC(=O)[C@H](CC(=O)O)NC1=O)C(=O)N[C@@H](CCCNC(=N)N)C(=O)N[C@@H](Cc1c[nH]c3ccccc13)C(=O)N[C@@H](C1CCCC1)C(=O)N[C@H](C(N)=O)CSCC(=O)N[C@@H](Cc1ccc3ccccc3c1)C(=O)N[C@@H](CCCNC(=N)N)C(=O)N2 [Peptide-126] ({CH2CO}-[2Nal]RCGRDW[hCys]RW[Gly(cPent)]C-NH2; disulfide 3-8; thioether N-12) | 100% | 99.6% | 98.3% |  |  |  |  |  |
| CC(C)[C@@H]1NC(=O)[C@H](Cc2c[nH]c3ccccc23)NC(=O)[C@H](CC(=O)O)NC(=O)[C@H](CCNC(=N)N)NC(=O)CNC(=O)[C@H](CO)NC(=O)[C@H](CCCNC(=N)N)NC(=O)[C@H](Cc2ccc3ccccc3c2)NC(=O)CSC[C@@H](C(N)=O)NC(=O)[C@H](C2CCCC2)NC(=O)[C@H](Cc2c[nH]c3ccccc23)NC(=O)[C@H](CCCNC(=N)N)NC1=O [Peptide-119] | 21.1% | 88.5% | 70.9% |  |  |  |  |  |
| N=C(N)NCCC[C@@H]1NC(=O)CNC(=O)[C@@H]2CCSCSCC[C@H](NC(=O)[C@H](Cc3c[nH]c4ccccc34)NC(=O)[C@H](CC(=O)O)NC1=O)C(=O)N[C@@H](CCCNC(=N)N)C(=O)N[C@@H](Cc1c[nH]c3ccccc13)C(=O)N[C@@H](C1CCCC1)C(=O)N[C@H](C(N)=O)CSCC(=O)N[C@@H](Cc1ccc3ccccc3c1)C(=O)N[C@@H](CCCNC(=N)N)C(=O)N2 [Peptide-127] ({CH2CO}-[2Nal]R[hCys]GRDW[hCys]RW[Gly(cPent)]C-NH2; linker 3-8 via CH2; thioether N-12) | 95.1% | 97.5% | 90% |  |  |  |  |  |
| N=C(N)NCCC[C@@H]1NC(=O)[C@H](Cc2ccc3ccccc3c2)NC(=O)CSC[C@@H](C(N)=O)NC(=O)[C@H](C2CCCC2)NC(=O)[C@H](Cc2c[nH]c3ccccc23)NC(=O)[C@H](CCCNC(=N)N)NC(=O)[C@@H]2CCSSCC[C@H](NC1=O)C(=O)NCC(=O)N[C@@H](CCNC(=N)N)C(=O)N[C@@H](CC(=O)O)C(=O)N[C@@H](Cc1c[nH]c3ccccc13)C(=O)N2 [Peptide-9] ({CH2CO}-[2Nal]R[hCys]G[Agb]DW[hCys]RW[Gly(cPent)]C-NH2; disulfide 3-8; thioether N-12) | 93% | 118% | 95.8% | high serum stability; also recorded: higher serum stability |  |  |  |  |
| N=C(N)NCCC[C@@H]1NC(=O)CNC(=O)[C@@H]2CCSSCC[C@H](NC(=O)[C@H](Cc3c[nH]c4ccccc34)NC(=O)[C@H](CC(=O)O)NC1=O)C(=O)N[C@@H](CCCNC(=N)N)C(=O)N[C@@H](Cc1c[nH]c3ccccc13)C(=O)N[C@@H](C1CCCC1)C(=O)N[C@H](C(N)=O)CSCC(=O)N[C@@H](Cc1ccc3ccccc3c1)C(=O)N[C@@H](CCCNC(=N)N)C(=O)N2 [Peptide-11] ({CH2CO}-[2Nal]R[hCys]GRDW[hCys]RW[Gly(cPent)]C-NH2; disulfide 3-8; thioether N-12) | 89.9% | 105% | 88% | high serum stability |  |  |  |  |

Further lines, with some results ahead:

| remaining at 4 h, 20 μM [2] | remaining at 4 h, 20 μM [3] | remaining at 4 h, 20 μM [4] | serum stability (in words) [4] | Structure (SMILES) | blood flow AUC, % of vehicle group mean ([1]; 0.3 mg/kg) | %, ischemia/nonischemia (blood flow on the last day of measurement) ([1]; 0.3 mg/kg) | blood flow AUC, % of vehicle group mean ([1]; 1 mg/kg) | %, ischemia/nonischemia (blood flow on the last day of measurement) ([1]; 1 mg/kg) |
| --- | --- | --- | --- | --- | --- | --- | --- | --- |
| 89.2% | 101% | 89.2% | high serum stability | N=C(N)NCCC[C@@H]1NC(=O)CNC(=O)[C@@H]2CSCSCC[C@H](NC(=O)[C@H](Cc3c[nH]c4ccccc34)NC(=O)[C@H](CC(=O)O)NC1=O)C(=O)N[C@@H](CCCNC(=N)N)C(=O)N[C@@H](Cc1c[nH]c3ccccc13)C(=O)N[C@@H](C1CCCC1)C(=O)N[C@H](C(N)=O)CSCC(=O)N[C@@H](Cc1ccc3ccccc3c1)C(=O)N[C@@H](CCCNC(=N)N)C(=O)N2 [Peptide-131] ({CH2CO}-[2Nal]RCGRDW[hCys]RW[Gly(cPent)]C-NH2; linker 3-8 via CH2; thioether N-12) |  |  |  |  |
| 93.5% | 88% | 98% | high serum stability | N=C(N)NCCC[C@@H]1NC(=O)CNC(=O)[C@@H]2CSCSC[C@H](NC(=O)[C@H](Cc3c[nH]c4ccccc34)NC(=O)[C@H](CC(=O)O)NC1=O)C(=O)N[C@@H](CCCNC(=N)N)C(=O)N[C@@H](Cc1c[nH]c3ccccc13)C(=O)N[C@@H](C1CCCC1)C(=O)N[C@H](C(N)=O)CSCC(=O)N[C@@H](Cc1ccc3ccccc3c1)C(=O)N[C@@H](CCCNC(=N)N)C(=O)N2 [Peptide-130] ({CH2CO}-[2Nal]RCGRDWCRW[Gly(cPent)]C-NH2; linker 3-8 via CH2; thioether N-12) |  |  |  |  |
| 98.6% | 99% | 98.1% |  | N=C(N)NCCC[C@@H]1NC(=O)CNC(=O)[C@@H]2CSSC[C@H](NC(=O)[C@H](Cc3c[nH]c4ccccc34)NC(=O)[C@H](CC(=O)O)NC1=O)C(=O)N[C@@H](CCCNC(=N)N)C(=O)N[C@@H](Cc1c[nH]c3ccccc13)C(=O)N[C@@H](C1CCCC1)C(=O)N[C@H](C(N)=O)CSCC(=O)N[C@@H](Cc1ccc3ccccc3c1)C(=O)N[C@@H](CCCNC(=N)N)C(=O)N2 [Peptide-128] ({CH2CO}-[2Nal]RCGRDWCRW[Gly(cPent)]C-NH2; disulfide 3-8; thioether N-12) |  |  |  |  |
